{
  "source": "patent US20040092890A1",
  "about": "“Catheter lock solution including a photo-oxidant” (priority 2003, published 2004)",
  "key": {"[1]": {"tested_on": "Enterobacter Faecalis", "assay": "Effect of methylene blue on concentration of a gram positive organism without light exposure (FIG. 3)", "assay_type": "cell-based", "experimental": "FIG. 3 is a representation of the effect of methylene blue (12 mg/100 ml) on concentration of a gram positive organism, Enterobacter Faecalis, without light exposure.\n(§1) In a series of tests, with a gram negative and a gram positive organism, methylene blue inactivated all bacteria within 1 day, while heparin and a 4% concentration of citrate caused no effect on gram positive organisms (FIGS. 2, 3). Methylene blue also advantageously colors the lock solution blue, which provides a useful tool to medical personnel in preventing confusion between the lock solution and any other solution that might be present in a syringe or the catheter.\nFIG. 3 is a representation of the effect of methylene blue (12 mg/100 ml) on concentration of a gram positive organism, Enterobacter Faecalis, without light exposure. […] It is expected that illumination will augment bacterial killing by methylene blue even more."}, "[2]": {"tested_on": "Escherichia Coli", "assay": "Effect of methylene blue on concentration of a gram negative organism without light exposure (FIG. 2)", "assay_type": "cell-based", "experimental": "FIG. 2 is a graph depicting the effect of methylene blue (12 mg/100 ml) on concentration of a gram negative organism, Escherichia Coli, without light exposure.\nas §1\nFIG. 2 is a representation of the effect of methylene blue (12 mg/100 ml) on concentration of a gram negative organism, Escherichia Coli, without light exposure. […] It is expected that illumination will augment bacterial killing by methylene blue even more."}, "[3]": {"tested_on": "gram-negative organisms", "assay": "Killing of gram-negative organisms by methylene blue 0.01%", "settings": "methylene blue 0.01% (10 mg/100 mL)"}, "[4]": {"assay": "Relative density of citrate solutions (FIG. 6)", "assay_type": "physicochemical", "text": "It is of course understood that the densities of citrate solutions increase as the concentrations of citrate therein increase.\nThe densities of various formulations of various catheter lock solutions are directly related to the citrate concentration, as reflected in the linear graph set forth in FIG. 6."}, "[5]": {"tested_on": "gram negative bacteria", "settings": "large numbers of bacteria; cited from earlier work"}, "[6]": {"settings": "methylene blue 12 mg/100 ml, without light exposure"}},
  "data": [
    {"compound": "heparin", "values": [
      {"measurement": "Effect on gram positive organisms", "setting": "[1]; heparin", "result": "no effect"}
    ]},
    {"compound": "CN(C)c1ccc2nc3ccc(=[N+](C)C)cc-3sc2c1", "note": "[methylene blue]", "values": [
      {"measurement": "Time to inactivate all bacteria", "setting": "[2]; gram negative organism", "result": "≤ 1", "unit": "days"},
      {"measurement": "Killing of E. Coli", "setting": "[2]; [6]", "result": "All E. Coli are killed within one day"},
      {"measurement": "Time to inactivate all bacteria", "setting": "[1]; gram positive organism", "result": "≤ 1", "unit": "days"},
      {"measurement": "Killing of Enterobacter Faecalis", "setting": "[1]; [6]", "result": "All Enterobacter are killed within one day"},
      {"measurement": "Killing of gram-negative organisms", "setting": "[3]", "result": "kill gram-negative organisms within one day"}
    ]},
    {"compound": "O=C(O)CC(O)(CC(=O)O)C(=O)O", "note": "[citrate]", "values": [
      {"measurement": "Effect on gram positive organisms", "setting": "[1]; 4% concentration of citrate", "result": "no effect"},
      {"measurement": "Relative density", "setting": "[4]; 23% citrate", "result": 1.120},
      {"measurement": "Relative density", "setting": "[4]; citrate concentration of 0.24M", "result": "about 1.045"},
      {"measurement": "Time until all gram negative bacteria are killed", "setting": "[5]", "result": "1 to 7", "unit": "days"}
    ]}
  ]
}
